1 compound from PMC2737686 (Virology, 2009) can be followed below.

In one assay the test system is DHBV core gene RNA. The assay can be described thus: Filter-binding assay of peptides, DHBV core gene RNA. To be noted: 32P-labeled DHBV core gene RNA. On the set-up: species or system Duck hepatitis B virus.
The subject of another assay is ε RNA. Briefly: Filter-binding assay of peptides, ε RNA. Also noted: species or system Duck hepatitis B virus. To be noted: peptide 10 pMol to 0.3 pMol on filter; 32P-labeled ε RNA.
For assay [1], the system named is double-stranded DNA fragment. The assay can be described thus: Filter-binding assay of peptides, double-stranded DNA. To be noted: 32P-labeled double-stranded DNA fragment.

Peptide text beside a SMILES is read from it.

`CC[C@H](C)[C@H](NC(=O)[C@H](CCCNC(=N)N)NC(=O)[C@H](CC(N)=O)NC(=O)[C@@H]1CCCN1C(=O)[C@H](Cc1c[nH]c2ccccc12)NC(=O)[C@@H](N)CO)C(=O)N[C@H](C(=O)NCC(=O)N[C@@H](CCCCN)C(=O)N[C@@H](CC(C)C)C(=O)N[C@@H](Cc1ccccc1)C(=O)N[C@@H](CC(C)C)C(=O)N[C@H](C(=O)N[C@@H](CC(=O)O)C(=O)N[C@@H](CCCCN)C(=O)N[C@@H](CC(N)=O)C(=O)N[C@@H](CO)C(=O)N[C@@H](CCCNC(=N)N)C(=O)N[C@@H](CC(N)=O)C(=O)N[C@H](C(=O)N[C@@H](CCC(=O)O)C(=O)N[C@@H](CCC(=O)O)C(=O)N[C@@H](C)C(=O)N[C@@H](CCCNC(=N)N)C(=O)N[C@@H](CC(C)C)C(=O)N[C@H](C(=O)N[C@H](C(=O)N[C@@H](CC(=O)O)C(=O)N[C@@H](Cc1ccccc1)C(=O)N[C@@H](CO)C(=O)N[C@@H](CCC(N)=O)C(=O)N[C@@H](Cc1ccccc1)C(=O)N[C@@H](CO)C(=O)N[C@@H](CCCCN)C(=O)NCC(=O)N[C@@H](CCCCN)C(=O)O)C(C)C)C(C)C)[C@@H](C)O)C(C)C)[C@@H](C)O` [RT1C] (H-SWPNRITGKLFLVDKNSRNTEEARLVVDFSQFSKGK-OH; N-terminus and C-terminus assumed): the “Binding to irrelevant DHBV core gene RNA” value in the assay on DHBV core gene RNA was “able to bind to an irrelevant RNA derived from the DHBV core gene”. The “RNA binding to ε, relative (peptide titration)” value in the assay with ε RNA was “bound RNA less well than the T3B peptide”. In assay [1], the “Binding to double-stranded DNA” value was “able to bind to an irrelevant RNA derived from the DHBV core gene and to a double-stranded DNA fragment”.
